Test results as given in US20090075272A1, “Method to Identify CD40-Sensitive Cells Using Gene Expression” (priority 2007, published 2009).
“Also recorded” adds a separate entry of the source.

Columns and labels:
Su-DHL4 cells [1] = assay: Cell death after treatment with calcium ionophore; type: cell-based, human
OCI-Ly7 cells [2] = assay: Inhibition of CD40-mediated apoptosis by kinase inhibitors (viable cell count); type: cell-based, human; conditions: 96 hours CD40 stimulation, U0126 10 μM, PD98059 50 μM, SB203580 10 μM added 30 minutes prior
Method: (§1) FIG. 10 is a bar graph showing the effect of ERK inhibition on CD40-mediated apoptosis. Cells were subjected to CD40 stimulation for 96 hours in the presence of the MEK1/2 inhibitors U0126 (10 μM) or PD98059 (50 μM), or the p38 inhibitor SB203580 (10 μM). Cell viability was quantitated by staining nonpermeabilized cells with propidium iodide, and counting the number of unstained (live) cells per unit volume using a Becton-Dickinson FACScan flow cytometer set to count for 30 seconds. The number of viable cells in anti-CD40-treated samples was expressed as a percentage of the number of viable cells incubated in secondary antibody only. Results from three experiments of four replicates each are shown. Error bars represent standard deviations. […] Constitutive ERK phosphorylation is correlated with CD40-mediated cell death.
(§2) Cells were resuspended at 1×10^5 cells/mL in RPMI 1640 medium supplemented as described above. Anti-CD40 antibody G28.5 and secondary crosslinking antibody HB58 were added to a final concentration of 10 μg/mL each, and the cells were incubated at 37° C. At 24 hour intervals aliquots of cells were harvested by centrifugation, washed once in phosphate buffered saline, and resuspended in FACS buffer. Non-permeabilized cells were stained by addition of 1 μg/mL propidium iodide, and the density of viable cells was determined using a FACScan flow cytometer and CellQuest software (Becton Dickinson, Mississauga, ON, Canada) set to count for a fixed 30-second time interval. To determine the fraction of cells that had undergone apoptosis, total intracellular DNA content was measured by propidium iodide staining of ethanol-permeabilized cells as previously described (16). Expression of CD40 on the cell surface was confirmed by staining non-permeabilized cells with a phycoerythrin-linked anti-CD40 antibody (clone 5C3, Becton-Dickinson) as per the manufacturer's directions, followed by flow cytometry.

Su-DHL4 cells [3] = assay: as above; type: cell-based, human; conditions: 96 hours CD40 stimulation, U0126 10 μM, PD98059 50 μM, SB203580 10 μM added 30 minutes prior
Method: as §1, §2

[4] = tested on: phosphorylated ERK in Su-DHL4 cells; conditions: 10 μM, 48 hours
Method: Cells were permeabilized in Cytofix/Cytoperm (Becton-Dickinson) for 20 minutes, and stained with anti-phospho-ERK antibody (Cell Signaling Technology #9101) and FITC-conjugated anti-rabbit secondary antibody (Cedarlane Laboratories, Hornby, ON, CA) following the manufacturers' instructions. The stained cells were analyzed by flow cytometry with a FACScan flow cytometer and CellQuest software.
This hypothesis was tested using pharmacologic inhibitors of MEK. Su-DHL4 cells were incubated in the presence of 10 μM U0126 for 48 hours, permeabilized and stained with an anti-phospho-ERK antibody.

[5] = tested on: CD40-sensitive and CD40-resistant DLCBL lines (OCI-Ly1, OCI-Ly7, OCI-Ly8, Su-DHL4); conditions: 96 hours; inhibitor 10^−4 to 10^−8 M
Method: Sensitivity of the cell lines to inhibition of LCK and ERK activity was tested by addition of the src family kinase inhibitor PP1 or the MEK1/2 inhibitor U0126. Cells were incubated for 96 hours in inhibitor concentrations ranging from 10^−4 to 10^−8 M, and viability was assessed by MTT [3-(4,5-dimethylthiazol-2-yl)-2,5-diphenyltetrazolium bromide] assay. Viability is expressed as a percentage of the absorbance at 570 nm as compared to untreated samples. Results of two experiments with quadruplicate samples each were combined. Error bars indicate standard deviations.
The src family kinase inhibitor PP1 and the MEK inhibitor U0126 were purchased from Biomol (Plymouth Meeting, Pa., USA), and from Cell Signaling Technology (Beverly, Mass., USA) respectively. Kinase inhibition assays were performed using cells seeded at a density of 5×10^4 per mL in 96-well plates, to which kinase inhibitors were added to final concentrations of 10^−4 to 10^−8 M. The treated cells were incubated at 37° C. for 96 hours and cell viability was quantitated by MTT assay as previously described (17).

OCI-Ly7 cells [6] = assay: Growth inhibition by kinase inhibitors (MTT assay); type: cell-based, human; conditions: 96 hours; inhibitor 10^−4 to 10^−8 M
Excerpt: (§3) Error bars indicate standard deviations.

Su-DHL4 cells [7] = assay: Growth inhibition by kinase inhibitors (MTT assay); type: cell-based, human; conditions: 96 hours; inhibitor 10^−4 to 10^−8 M
Excerpt: as §3

## C[C@H](CCC(=O)O)C[C@H](C)C[C@H](C)C(=O)/C=C(\O)[C@H](C)C[C@H](C)C/C=C/[C@@H](C)[C@@H](O)[C@@H](C)[C@@H](O)C[C@@H]1CC[C@@](C)([C@H]2CC[C@@](C)([C@@H](C)O)O2)O1 [ionomycin]
Su-DHL4 cells [1]
  cell death: induced cell death

## COc1cccc(-c2cc(=O)c3ccccc3o2)c1N [PD98059]
OCI-Ly7 cells [2]
  CD40-mediated cell death (viable cells in anti-CD40-treated samples vs secondary antibody only): prevented CD40-mediated reduction in viability
OCI-Ly7 cells [2]; listed as PD98058
  CD40-mediated cell death (viable cells in anti-CD40-treated samples vs secondary antibody only): reduced CD40-mediated cell death
Su-DHL4 cells [3]
  CD40-mediated cell death (viable cells in anti-CD40-treated samples vs secondary antibody only): prevented CD40-mediated reduction in viability
Su-DHL4 cells [3]; listed as PD98058
  CD40-mediated cell death (viable cells in anti-CD40-treated samples vs secondary antibody only): reduced CD40-mediated cell death

## N#CC(=C(/N)Sc1ccccc1N)/C(C#N)=C(\N)Sc1ccccc1N [U0126]
[4]
  phosphorylation of ERK: reduced
OCI-Ly7 cells [2]
  CD40-mediated cell death (viable cells in anti-CD40-treated samples vs secondary antibody only): prevented CD40-mediated reduction in viability; also recorded: reduced CD40-mediated cell death
Su-DHL4 cells [3]
  CD40-mediated cell death (viable cells in anti-CD40-treated samples vs secondary antibody only): prevented CD40-mediated reduction in viability; also recorded: reduced CD40-mediated cell death
[5]
  differential effects on growth of CD40-sensitive and CD40-resistant DLCBL lines: did not show differential effects

## Cc1ccc(-c2nn(C(C)(C)C)c3ncnc(N)c23)cc1 [PP1]
OCI-Ly7 cells [6]
  growth (viability by MTT assay): more effective at reducing proliferation; also recorded: inhibited by PP1 more efficiently than growth of CD40-resistant OCI-Ly1 and OCI-Ly8 cells
Su-DHL4 cells [7]
  growth (viability by MTT assay): more effective at reducing proliferation; also recorded: inhibited by PP1 more efficiently than growth of CD40-resistant OCI-Ly1 and OCI-Ly8 cells

## C[S+]([O-])c1ccc(-c2nc(-c3ccncc3)c(-c3ccc(F)cc3)[nH]2)cc1 (stereo not shown) [SB203580]
OCI-Ly7 cells [2]
  CD40-mediated cell death (viable cells in anti-CD40-treated samples vs secondary antibody only): reduced by CD40 ligation
Su-DHL4 cells [3]
  CD40-mediated cell death (viable cells in anti-CD40-treated samples vs secondary antibody only): reduced by CD40 ligation
